{"source": "patent US9682126B2", "about": "“Postprandial gastrokinetic agent” (ZERIA PHARMACEUTICAL CO., LTD., priority 2013, dated 2017)", "key": {"Suncus murinus [1]": {"test_system": "Suncus murinus", "test": "Postprandial motility by co-administration of ghrelin and motilin, ΔMI (Example 3)", "format": "in vivo", "experimental": "Each of Suncus motilin (Scrum Inc., Tokyo, Japan) and human ghrelin (Asubio Pharma Co., Ltd., Hyogo, Japan) was dissolved in PBS containing 0.1% bovine serum albumin.\nSuncus murinus (male, outbred KAT strain, 7 to 39 weeks old, 56 to 91 g) was used for the experiment. The Each animal was bred in a plastic cage provided with an empty can as a nest box under the following conditions: temperature at 23±2° C., illumination between 8:00 and 20:00, and free intake of commercial trout feed (SP, Nippon Formula Feed Mfg Co., Ltd., Yokohama, Japan).\nAfter 3 hours of fasting, Suncus murinus was anesthetized by an intraperitoneal injection of pentobarbital sodium (50 mg/kg). Through a midline incision, the stomach was exposed outside the body, and a force transducer was fixed via suture in the circular muscle direction of the body of stomach. The wire extending from the force transducer was inserted through the abdominal wall, passed under the skin, and exposed at the back of the neck.\nAn intravenous catheter was inserted in the right jugular, and extracorporeally fixed to the back. The catheter was filled with heparinized saline (100 units/mL) to prevent clotting.\nEach of the operated Suncus murinus was allowed to recover for several days.\nDrug administration and measurement of gastric motility were performed in the conscious, free-moving state without anesthesia.\n2 g of feed was given to each Suncus murinus fastened (for 8 to 10 hours) for 10 minutes. After the intake of feed for 10 minutes, ghrelin (50, 1,000, or 3,000 ng/kg), motilin (300, 500, 1,000, or 3,000 ng/kg), or a mixed solution of ghrelin (15 or 50 ng/kg) and motilin (100, 200, or 300 ng/kg) was intravenously administered through a jugular vein catheter rapidly.\nAmplified analog signals were converted into digital signals by an analog-to-digital converter (ADC-20, Pico Technology Ltd, St Neots, UK), and the digital signals were recorded on a computer.\nPhase III contractions of MMC in conscious Suncus murinus were defined on the basis of those in dogs and humans (that is, clustered contractions with an amplitude of 8 g or more that lasts for 5 minutes or more).\nGastric motility was quantitated using a motility index (ΔMI). A motility index (ΔMI) based on a drug was calculated using the following equation. ΔMI (%)=(A−C)/B×100 A: AUC of contractions for 10 minutes during which the drug was administered B: AUC of 10-minute spontaneous phase III contractions appeared before administration of the drug C: (AUC of contractions appeared for 5 minutes between 5 and 10 minutes after the intake of feed)×2 (2) Results (FIG. 9) A. Action of Ghrelin Alone"}, "subjects": {"test_system": "subjects", "conditions": "motilin continuously administered intravenously to fasting subjects; cited from earlier work"}, "Suncus murinus [2]": {"test_system": "Suncus murinus", "test": "Gastric motility in postprandial period, sham-operated vs vagotomized (Example 2)", "format": "in vivo", "experimental": "Each of Suncus motilin (Scrum Inc., Tokyo, Japan) and human ghrelin (Asubio Pharma Co., Ltd., Hyogo, Japan) were dissolved in PBS containing 0.1% bovine serum albumin. Suncus murinus (male, outbred KAT strain, 7 to 15 weeks old, 60 to 100 g) was used for the experiment. Each animal was bred in a plastic cage provided with an empty can as a nest box under the following conditions: temperature at 23±2° C., illumination between 8:00 and 20:00, and free intake of commercial trout feed (SP, Nippon Formula Feed Mfg Co., Ltd., Yokohama, Japan). After 3 hours of fasting, Suncus murinus was anesthetized by an intraperitoneal injection of pentobarbital sodium (50 mg/kg). Through a midline incision, the stomach was exposed outside the body, and a force transducer was fixed via suture in the circular muscle direction of the body of stomach. The wire extending from the force transducer was inserted through the abdominal wall, passed under the skin, and exposed at the back of the neck. Thereafter, truncal vagotomy was performed. A lower portion of the esophagus was exposed, both branches of the vagus nerve were isolated, and about 3 mm of the vagus nerve was excised above the hepatic branch and the celiac branch. For sham-operated Suncus murinus, the vagus nerve was exposed, but not excised. An intravenous catheter was inserted in the right jugular, and extracorporeally fixed to the back. The catheter was filled with heparinized saline (100 units/mL) to prevent clotting. From 2 days after the operation, the gastric motility was recorded. 1 g of feed was given to the Suncus murinus during phase I to observe postprandial contractions. Motilin was continuously injected at 50 ng/kg/min over 10 minutes 20 minutes after completion of intake of feed. Amplified analog signals were converted into digital signals by an analog-to-digital converter (ADC-20, Pico Technology Ltd, St Neots, UK), and the digital signals were recorded on a computer. […] Gastric motility was quantitated using a motility index (MI). A motility index (MI) based on a drug was calculated using the following equation. […]"}, "[3]": {"conditions": "motilin 300 ng/kg iv after feed intake"}, "[4]": {"conditions": "motilin 500 ng/kg iv after feed intake"}, "[5]": {"conditions": "motilin 1,000 ng/kg iv after feed intake"}, "[6]": {"conditions": "motilin 3,000 ng/kg iv after feed intake"}}, "data": [{"smiles": "CC[C@H](C)[C@H](NC(=O)[C@@H]1CCCN1C(=O)[C@@H](NC(=O)[C@@H](N)Cc1ccccc1)C(C)C)C(=O)N[C@@H](Cc1ccccc1)C(=O)N[C@H](C(=O)N[C@@H](Cc1ccc(O)cc1)C(=O)NCC(=O)N[C@@H](CCC(=O)O)C(=O)N[C@@H](CC(C)C)C(=O)N[C@@H](CCC(N)=O)C(=O)N[C@@H](CCCNC(=N)N)C(=O)N[C@@H](CCSC)C(=O)N[C@@H](CCC(N)=O)C(=O)N[C@@H](CCC(=O)O)C(=O)N[C@@H](CCCCN)C(=O)N[C@@H](CCC(=O)O)C(=O)N[C@@H](CCCNC(=N)N)C(=O)N[C@@H](CC(N)=O)C(=O)N[C@@H](CCCCN)C(=O)NCC(=O)N[C@@H](CCC(N)=O)C(=O)O)[C@@H](C)O", "note": "[motilin]", "values": [{"measurement": "Motility Index (ΔMI)", "setting": "Suncus murinus [1]; [3]", "value": "About 4.9%"}, {"measurement": "contractions of the body of the stomach", "setting": "Suncus murinus [1]; [3]", "value": "did not induce contractions of the body of the stomach"}, {"measurement": "Motility Index (ΔMI)", "setting": "Suncus murinus [1]; [4]", "value": "About 6.8%"}, {"measurement": "contractions of the body of the stomach", "setting": "Suncus murinus [1]; [4]", "value": "did not induce contractions of the body of the stomach"}, {"measurement": "Motility Index (ΔMI)", "setting": "Suncus murinus [1]; [5]", "value": "About 49.5%"}, {"measurement": "phase III-like contractions", "setting": "Suncus murinus [1]; [5]", "value": "induced phase III-like contractions"}, {"measurement": "Motility Index (ΔMI)", "setting": "Suncus murinus [1]; [6]", "value": "about 48.3%"}, {"measurement": "phase III-like contractions", "setting": "Suncus murinus [1]; [6]", "value": "induced phase III-like contractions"}, {"measurement": "gastric emptying", "setting": "subjects", "value": "accelerate gastric emptying"}, {"measurement": "MI of postprandial motilin-induced contractions, vagotomized compared with sham-operated", "setting": "Suncus murinus [2]; motilin 50 ng/kg/min after intake of feed", "value": "significantly higher"}, {"measurement": "phase III-like contractions", "setting": "Suncus murinus [2]; sham-operated, after intake of feed, motilin 50 ng/kg/min, 10-minute administration", "value": "did not induce phase III-like contractions"}, {"measurement": "phase III contractions", "setting": "Suncus murinus [2]; vagotomized, after intake of feed, motilin 50 ng/kg/min, 10-minute administration", "value": "induced strong phase III contractions"}]}]}
